In PubChem BioAssay AID2060606 (Molecular Pharmacology Branch, DTP, NCI, 2025):
Blank lines part the entries; values can stand above or below the compound they belong to.

System: 922993-354-T-J3-PDC complex spheroids, viability, % test/control
Assay: Anticancer human tumor 922993-354-T-J3-PDC patient-derived endometrial carcinoma cell line growth inhibition [CLK]
Conditions: for IC50: curve of first compound; for viability, T/C: stronger effect = lower value
Summary of the method: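 Patient-derived tumor cells grown as complex spheroids with HUVEC endothelial cells and mesenchymal stem cells, treated with drug combinations. Concentrations descend in half-log steps from near clinical Cmax, or from 10 microM if Cmax unknown.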

[1] = second compound 0.0316 µM, first compound 0.0316 µM
[2] = second compound 0.0316 µM, first compound 0.1 µM
[3] = second compound 0.0316 µM, first compound 0.316 µM
[4] = second compound 0.0316 µM, first compound 1 µM
[5] = second compound 0.0316 µM, first compound 3.16 µM
[6] = second compound 0.0316 µM, first compound 10 µM
[7] = second compound 0.1 µM, first compound 0.0316 µM
[8] = second compound 0.1 µM, first compound 0.1 µM
[9] = second compound 0.1 µM, first compound 0.316 µM
[10] = second compound 0.1 µM, first compound 1 µM
[11] = second compound 0.1 µM, first compound 3.16 µM
[12] = second compound 0.1 µM, first compound 10 µM
[13] = second compound 0.316 µM, first compound 0.0316 µM
[14] = second compound 0.316 µM, first compound 0.1 µM
[15] = second compound 0.316 µM, first compound 0.316 µM
[16] = second compound 0.316 µM, first compound 1 µM
[17] = second compound 0.316 µM, first compound 3.16 µM
[18] = second compound 0.316 µM, first compound 10 µM
[19] = second compound 1 µM, first compound 0.0316 µM
[20] = second compound 1 µM, first compound 0.1 µM
[21] = second compound 1 µM, first compound 0.316 µM
[22] = second compound 1 µM, first compound 1 µM
[23] = second compound 1 µM, first compound 3.16 µM
[24] = second compound 1 µM, first compound 10 µM
[25] = second compound 3.16 µM, first compound 0.0316 µM
[26] = second compound 3.16 µM, first compound 0.1 µM
[27] = second compound 3.16 µM, first compound 0.316 µM
[28] = second compound 3.16 µM, first compound 1 µM
[29] = second compound 3.16 µM, first compound 3.16 µM
[30] = second compound 3.16 µM, first compound 10 µM
[31] = second compound 10 µM, first compound 0.0316 µM
[32] = second compound 10 µM, first compound 0.1 µM
[33] = second compound 10 µM, first compound 0.316 µM
[34] = second compound 10 µM, first compound 1 µM
[35] = second compound 10 µM, first compound 3.16 µM
[36] = second compound 10 µM, first compound 10 µM
[37] = second compound 0.0316 µM, first compound 0.00316 µM
[38] = second compound 0.0316 µM, first compound 0.01 µM
[39] = second compound 0.1 µM, first compound 0.00316 µM
[40] = second compound 0.1 µM, first compound 0.01 µM
[41] = second compound 0.316 µM, first compound 0.00316 µM
[42] = second compound 0.316 µM, first compound 0.01 µM
[43] = second compound 1 µM, first compound 0.00316 µM
[44] = second compound 1 µM, first compound 0.01 µM
[45] = second compound 3.16 µM, first compound 0.00316 µM
[46] = second compound 3.16 µM, first compound 0.01 µM
[47] = second compound 10 µM, first compound 0.00316 µM
[48] = second compound 10 µM, first compound 0.01 µM
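Further: spheroids exposed to the agents for 7 days before readout.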

Compound: CC(CO)NC(=O)c1cc(-c2ccc(Cl)cc2)nn(-c2cnn(C)c2)c1=O (stereo not given) + CNC(=O)c1ccc(Nc2nc(OC3CCCC3)c3c(-c4ccc5nc(C)oc5c4)c[nH]c3n2)c(OC)c1
IC50 (second compound 0.0316 µM): > 10 µM | IC50 (second compound 0.1 µM): > 10 µM | IC50 (second compound 0.316 µM): > 10 µM | IC50 (second compound 1 µM): < 0.0316 µM | IC50 (second compound 3.16 µM): < 0.0316 µM | IC50 (second compound 10 µM): < 0.0316 µM | viability, T/C [1]: 108% | viability, T/C [2]: 100% | viability, T/C [3]: 101% | viability, T/C [4]: 101% | viability, T/C [5]: 102% | viability, T/C [6]: 98.6% | viability, T/C [7]: 113% | viability, T/C [8]: 102% | viability, T/C [9]: 91.3% | viability, T/C [10]: 103% | viability, T/C [11]: 118% | viability, T/C [12]: 75.4% | viability, T/C [13]: 59% | viability, T/C [14]: 57.4% | viability, T/C [15]: 56.9% | viability, T/C [16]: 48% | viability, T/C [17]: 59.3% | viability, T/C [18]: 57.8% | viability, T/C [19]: 38.9% | viability, T/C [20]: 34% | viability, T/C [21]: 33.5% | viability, T/C [22]: 39.9% | viability, T/C [23]: 47.7% | viability, T/C [24]: 34.3% | viability, T/C [25]: 30.5% | viability, T/C [26]: 31% | viability, T/C [27]: 30% | viability, T/C [28]: 30.9% | viability, T/C [29]: 37.9% | viability, T/C [30]: 36% | viability, T/C [31]: 34.2% | viability, T/C [32]: 30.3% | viability, T/C [33]: 29.9% | viability, T/C [34]: 26.9% | viability, T/C [35]: 32.5% | viability, T/C [36]: 30.7%

Compound: CC(Nc1ccc2c(c1)OCCn1cc(N3C(=O)OCC3C(F)F)nc1-2)C(N)=O (stereo not given) + CNC(=O)c1ccc(Nc2nc(OC3CCCC3)c3c(-c4ccc5nc(C)oc5c4)c[nH]c3n2)c(OC)c1
IC50 (second compound 0.0316 µM): 3.78 µM | IC50 (second compound 0.1 µM): 4.18 µM | IC50 (second compound 0.316 µM): 1.96 µM | IC50 (second compound 1 µM): < 0.0316 µM | IC50 (second compound 3.16 µM): < 0.0316 µM | IC50 (second compound 10 µM): < 0.0316 µM | viability, T/C [1]: 116% | viability, T/C [2]: 106% | viability, T/C [3]: 84.8% | viability, T/C [4]: 70.6% | viability, T/C [5]: 57% | viability, T/C [6]: 31.7% | viability, T/C [7]: 108% | viability, T/C [8]: 102% | viability, T/C [9]: 99.5% | viability, T/C [10]: 74.5% | viability, T/C [11]: 55.9% | viability, T/C [12]: 37% | viability, T/C [13]: 71.7% | viability, T/C [14]: 69.3% | viability, T/C [15]: 77.6% | viability, T/C [16]: 63.8% | viability, T/C [17]: 40% | viability, T/C [18]: 31.8% | viability, T/C [19]: 39.8% | viability, T/C [20]: 36.5% | viability, T/C [21]: 26.4% | viability, T/C [22]: 23.1% | viability, T/C [23]: 15.2% | viability, T/C [24]: 10.8% | viability, T/C [25]: 35.1% | viability, T/C [26]: 27.4% | viability, T/C [27]: 24% | viability, T/C [28]: 16.3% | viability, T/C [29]: 12.3% | viability, T/C [30]: 10.8% | viability, T/C [31]: 28.9% | viability, T/C [32]: 27.2% | viability, T/C [33]: 21.5% | viability, T/C [34]: 17.6% | viability, T/C [35]: 13.4% | viability, T/C [36]: 9.54%

Compound: COc1c(OCCCN2CCOCC2)ccc2c3n(c(=NC(=O)c4cnc(N)nc4)nc12)CCN3 + CNC(=O)c1ccc(Nc2nc(OC3CCCC3)c3c(-c4ccc5nc(C)oc5c4)c[nH]c3n2)c(OC)c1
IC50 (second compound 0.0316 µM): 0.215 µM | IC50 (second compound 0.1 µM): 0.238 µM | IC50 (second compound 0.316 µM): 0.168 µM | IC50 (second compound 1 µM): < 0.00316 µM | IC50 (second compound 3.16 µM): < 0.00316 µM | IC50 (second compound 10 µM): < 0.00316 µM | viability, T/C [37]: 92.2% | viability, T/C [38]: 88.6% | viability, T/C [1]: 83.5% | viability, T/C [2]: 72.2% | viability, T/C [3]: 38.9% | viability, T/C [4]: 14.8% | viability, T/C [39]: 123% | viability, T/C [40]: 100% | viability, T/C [7]: 108% | viability, T/C [8]: 78.2% | viability, T/C [9]: 40% | viability, T/C [10]: 15% | viability, T/C [41]: 90.5% | viability, T/C [42]: 87.9% | viability, T/C [13]: 74.4% | viability, T/C [14]: 63.5% | viability, T/C [15]: 35.6% | viability, T/C [16]: 10.8% | viability, T/C [43]: 42.2% | viability, T/C [44]: 37% | viability, T/C [19]: 27.9% | viability, T/C [20]: 20.6% | viability, T/C [21]: 10.1% | viability, T/C [22]: 1.71% | viability, T/C [45]: 32.6% | viability, T/C [46]: 28.9% | viability, T/C [25]: 22.5% | viability, T/C [26]: 11.8% | viability, T/C [27]: 7.41% | viability, T/C [28]: 1.47% | viability, T/C [47]: 31.1% | viability, T/C [48]: 25.5% | viability, T/C [31]: 20% | viability, T/C [32]: 11.7% | viability, T/C [33]: 7.11% | viability, T/C [34]: 1.68%

The next lines start with results.

IC50 (second compound 0.0316 µM): > 10 µM | IC50 (second compound 0.1 µM): > 10 µM | IC50 (second compound 0.316 µM): > 10 µM | IC50 (second compound 1 µM): < 0.0316 µM | IC50 (second compound 3.16 µM): < 0.0316 µM | IC50 (second compound 10 µM): < 0.0316 µM
Compound: C#Cc1c(F)ccc2cc(O)cc(-c3ncc4c(N5CC6CCC(C5)N6)nc(OCC56CCCN5CC(F)C6)nc4c3F)c12 (stereo not given) + CNC(=O)c1ccc(Nc2nc(OC3CCCC3)c3c(-c4ccc5nc(C)oc5c4)c[nH]c3n2)c(OC)c1
viability, T/C [1]: 115% | viability, T/C [2]: 98.5% | viability, T/C [3]: 103% | viability, T/C [4]: 101% | viability, T/C [5]: 115% | viability, T/C [6]: 94.1% | viability, T/C [7]: 94.9% | viability, T/C [8]: 95.2% | viability, T/C [9]: 116% | viability, T/C [10]: 107% | viability, T/C [11]: 109% | viability, T/C [12]: 97.5% | viability, T/C [13]: 61.4% | viability, T/C [14]: 64.5% | viability, T/C [15]: 63% | viability, T/C [16]: 61.8% | viability, T/C [17]: 57.1% | viability, T/C [18]: 45.6% | viability, T/C [19]: 39.5% | viability, T/C [20]: 40.6% | viability, T/C [21]: 35.5% | viability, T/C [22]: 37% | viability, T/C [23]: 40.8% | viability, T/C [24]: 35.8% | viability, T/C [25]: 29.7% | viability, T/C [26]: 29.4% | viability, T/C [27]: 29.8% | viability, T/C [28]: 30.4% | viability, T/C [29]: 34.3% | viability, T/C [30]: 36.2% | viability, T/C [31]: 30.9% | viability, T/C [32]: 29.4% | viability, T/C [33]: 30.5% | viability, T/C [34]: 33.2% | viability, T/C [35]: 33.1% | viability, T/C [36]: 31.5%

IC50 (second compound 0.0316 µM): > 1 µM | IC50 (second compound 0.1 µM): > 1 µM | IC50 (second compound 0.316 µM): 0.297 µM | IC50 (second compound 1 µM): < 0.00316 µM | IC50 (second compound 3.16 µM): < 0.00316 µM | IC50 (second compound 10 µM): < 0.00316 µM
Compound: CCN1CCN(Cc2ccc(Nc3ncc(F)c(-c4cc(F)c5nc(C)n(C(C)C)c5c4)n3)nc2)CC1 + CNC(=O)c1ccc(Nc2nc(OC3CCCC3)c3c(-c4ccc5nc(C)oc5c4)c[nH]c3n2)c(OC)c1
viability, T/C [37]: 106% | viability, T/C [38]: 93.2% | viability, T/C [1]: 98.5% | viability, T/C [2]: 88.5% | viability, T/C [3]: 69% | viability, T/C [4]: 59.9% | viability, T/C [39]: 103% | viability, T/C [40]: 93.4% | viability, T/C [7]: 92.4% | viability, T/C [8]: 76.7% | viability, T/C [9]: 66.9% | viability, T/C [10]: 53.8% | viability, T/C [41]: 58% | viability, T/C [42]: 59.2% | viability, T/C [13]: 57.4% | viability, T/C [14]: 56.4% | viability, T/C [15]: 45.5% | viability, T/C [16]: 45.7% | viability, T/C [43]: 35.6% | viability, T/C [44]: 33.6% | viability, T/C [19]: 33.6% | viability, T/C [20]: 35.9% | viability, T/C [21]: 30.5% | viability, T/C [22]: 38.1% | viability, T/C [45]: 29.4% | viability, T/C [46]: 27.9% | viability, T/C [25]: 30.5% | viability, T/C [26]: 31.5% | viability, T/C [27]: 31.6% | viability, T/C [28]: 35.5% | viability, T/C [47]: 28.6% | viability, T/C [48]: 29.2% | viability, T/C [31]: 31.9% | viability, T/C [32]: 29% | viability, T/C [33]: 38.4% | viability, T/C [34]: 36.3%
